According to ChEMBL document CHEMBL3585239, “Two diseases, one approach: multitarget drug discovery in Alzheimer's and neglected tropical diseases” (Medchemcomm, 2014):
Calls of active or inactive are those of the source. No cut-off for these calls is given here.

Legend:
[1] = target: T1, Acetylcholinesterase (Homo sapiens, UniProt P22303); assay: Inhibition of human recombinant AChE using acetylthiocholine iodide as substrate after 20 mins by Ellmans method
[2] = target: T1, Acetylcholinesterase; assay: Inhibition of human recombinant AChE using acetylthiocholine iodide as substrate after 20 mins by Ellmans method relative to dimebon
[3] = target: T2, Amyloid-beta precursor protein (Homo sapiens, UniProt P05067); assay: Inhibition of self-mediated amyloid beta (1 to 42) aggregation (unknown origin) at 10 uM after 24 hrs by thioflavin T fluorometric assay
T2 sequence (P05067 whole entry): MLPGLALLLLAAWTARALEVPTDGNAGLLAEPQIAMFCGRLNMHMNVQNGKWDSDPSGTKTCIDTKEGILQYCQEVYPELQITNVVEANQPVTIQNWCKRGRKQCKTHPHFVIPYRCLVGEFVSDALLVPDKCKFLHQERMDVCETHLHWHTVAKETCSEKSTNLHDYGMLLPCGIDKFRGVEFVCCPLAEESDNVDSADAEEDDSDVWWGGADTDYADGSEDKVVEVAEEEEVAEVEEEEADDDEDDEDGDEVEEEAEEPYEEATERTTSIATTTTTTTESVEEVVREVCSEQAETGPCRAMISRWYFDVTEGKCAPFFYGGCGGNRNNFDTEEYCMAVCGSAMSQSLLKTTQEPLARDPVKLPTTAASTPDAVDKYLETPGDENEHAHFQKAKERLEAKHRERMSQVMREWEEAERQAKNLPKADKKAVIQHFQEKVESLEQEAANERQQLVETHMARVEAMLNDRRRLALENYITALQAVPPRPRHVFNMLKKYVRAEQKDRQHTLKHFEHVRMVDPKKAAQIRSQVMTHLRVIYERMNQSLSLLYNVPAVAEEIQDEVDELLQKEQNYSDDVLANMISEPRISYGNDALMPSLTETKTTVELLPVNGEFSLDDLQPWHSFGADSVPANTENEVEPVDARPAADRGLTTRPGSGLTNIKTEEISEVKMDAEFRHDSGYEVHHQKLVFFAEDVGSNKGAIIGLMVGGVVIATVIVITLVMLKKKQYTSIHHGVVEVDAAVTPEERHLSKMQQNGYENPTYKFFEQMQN

[4] = target: Glutamate NMDA receptor; GRIN1/GRIN2A (Homo sapiens, UniProt Q05586+Q12879); assay: Inhibition of NMDA receptor (unknown origin) at 100 mV; assay type: protein-complex assay
Sequence of Glutamate NMDA receptor; GRIN1/GRIN2A (Q12879 whole entry, other chains not shown): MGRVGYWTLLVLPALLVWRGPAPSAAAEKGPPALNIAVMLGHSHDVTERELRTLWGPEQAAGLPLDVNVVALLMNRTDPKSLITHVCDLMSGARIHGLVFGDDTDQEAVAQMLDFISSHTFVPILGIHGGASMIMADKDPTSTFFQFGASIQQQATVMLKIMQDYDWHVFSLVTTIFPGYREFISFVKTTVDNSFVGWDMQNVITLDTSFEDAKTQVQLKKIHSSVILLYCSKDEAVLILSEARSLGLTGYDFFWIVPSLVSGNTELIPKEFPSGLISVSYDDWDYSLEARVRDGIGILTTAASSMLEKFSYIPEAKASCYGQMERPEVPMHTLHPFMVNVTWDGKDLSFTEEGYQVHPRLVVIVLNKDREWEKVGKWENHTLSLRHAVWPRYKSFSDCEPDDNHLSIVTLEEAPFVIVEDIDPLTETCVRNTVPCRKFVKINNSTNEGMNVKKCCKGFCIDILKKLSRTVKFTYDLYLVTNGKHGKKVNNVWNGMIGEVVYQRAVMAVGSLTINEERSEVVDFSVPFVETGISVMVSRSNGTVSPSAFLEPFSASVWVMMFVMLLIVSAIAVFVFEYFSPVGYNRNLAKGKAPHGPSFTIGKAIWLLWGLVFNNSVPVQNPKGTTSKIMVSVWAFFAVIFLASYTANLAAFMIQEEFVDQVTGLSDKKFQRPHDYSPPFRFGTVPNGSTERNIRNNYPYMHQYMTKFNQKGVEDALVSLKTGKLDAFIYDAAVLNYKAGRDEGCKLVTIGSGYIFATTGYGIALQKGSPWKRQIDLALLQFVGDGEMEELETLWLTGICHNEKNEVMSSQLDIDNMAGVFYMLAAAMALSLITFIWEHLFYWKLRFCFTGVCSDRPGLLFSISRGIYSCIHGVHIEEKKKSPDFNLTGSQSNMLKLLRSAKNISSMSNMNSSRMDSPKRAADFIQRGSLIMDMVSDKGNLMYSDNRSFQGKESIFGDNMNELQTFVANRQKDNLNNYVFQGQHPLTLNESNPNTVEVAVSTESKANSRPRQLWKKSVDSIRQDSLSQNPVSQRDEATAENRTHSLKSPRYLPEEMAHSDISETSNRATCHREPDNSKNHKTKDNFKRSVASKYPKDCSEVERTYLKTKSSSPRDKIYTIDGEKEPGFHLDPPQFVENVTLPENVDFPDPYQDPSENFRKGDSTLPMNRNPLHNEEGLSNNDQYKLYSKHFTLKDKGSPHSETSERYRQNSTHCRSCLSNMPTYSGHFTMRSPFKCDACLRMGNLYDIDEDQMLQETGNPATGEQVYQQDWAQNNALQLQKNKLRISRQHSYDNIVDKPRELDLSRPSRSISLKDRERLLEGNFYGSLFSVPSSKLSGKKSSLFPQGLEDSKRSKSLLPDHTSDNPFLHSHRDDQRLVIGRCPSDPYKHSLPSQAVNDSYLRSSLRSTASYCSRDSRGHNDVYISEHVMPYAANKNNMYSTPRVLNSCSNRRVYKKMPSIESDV

[5] = Inhibition of parasite-specific trypanothione reductase
[6] = Inhibition of Trypanosoma brucei GAPDH
[7] = tested on: Trypanosoma brucei; assay: Antitrypanosomal activity against Trypanosoma brucei; assay type: functional, organism-based
[8] = tested on: L6; assay: Cytotoxicity against rat L6 cells; assay type: cell-based
[9] = target: T2, Amyloid-beta precursor protein; assay: Inhibition of self-mediated amyloid beta (1 to 42) aggregation (unknown origin) after 24 hrs by thioflavin T fluorometric assay
[10] = tested on: Trypanosoma brucei rhodesiense; assay: Antitrypanosomal activity against bloodstream forms of Trypanosoma brucei rhodesiense; assay type: functional; conditions: read-out: ED50 (the source's name)
[11] = Selectivity index, ratio of ED50 for mammalian cells to ED50 for Trypanosoma brucei rhodesiense; assay type: toxicity; conditions: read-out: Ratio ED50

T1 sequence (P22303 whole entry): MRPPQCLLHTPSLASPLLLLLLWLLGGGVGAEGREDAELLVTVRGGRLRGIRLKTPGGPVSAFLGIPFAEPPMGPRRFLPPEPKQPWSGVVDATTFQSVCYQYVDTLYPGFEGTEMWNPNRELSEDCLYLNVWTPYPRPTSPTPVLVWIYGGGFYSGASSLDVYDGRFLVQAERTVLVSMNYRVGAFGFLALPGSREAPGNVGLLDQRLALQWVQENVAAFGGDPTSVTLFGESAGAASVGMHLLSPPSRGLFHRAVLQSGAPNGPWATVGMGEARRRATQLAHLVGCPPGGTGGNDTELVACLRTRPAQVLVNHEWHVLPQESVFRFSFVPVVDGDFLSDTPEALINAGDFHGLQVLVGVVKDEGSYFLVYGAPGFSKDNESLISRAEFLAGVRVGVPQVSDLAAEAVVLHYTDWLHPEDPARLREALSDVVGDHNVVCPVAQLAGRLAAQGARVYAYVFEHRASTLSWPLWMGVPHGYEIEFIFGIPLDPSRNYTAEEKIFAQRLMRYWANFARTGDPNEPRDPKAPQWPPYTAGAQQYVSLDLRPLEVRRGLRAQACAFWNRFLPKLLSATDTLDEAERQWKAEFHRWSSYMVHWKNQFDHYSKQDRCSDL

## Cc1ccc2[nH]c3c(c2c1)CN(CCCCCCN1CCc2[nH]c4ccc(C)cc4c2C1)CC3
[1]
  IC50: 190 nM
[2]
  fold change (FC): 128
[3]
  inhibition: 35.6%
[4]
  IC50: 11000 nM

## Cc1ccc2[nH]c3c(c2c1)CN(CCCCCCCN1CCc2[nH]c4ccc(C)cc4c2C1)CC3
[1]
  IC50: 690 nM
[2]
  fold change (FC): 128
[3]
  inhibition: 35.2%
[4]
  IC50: 12600 nM

## CN(C)CCOc1cc2ccc(OC3=CC(=O)c4cc5ccccc5cc4C3=O)cc2oc1=O
[5]
  Ki: 2700 nM
[6]
  IC50: 5400 nM

## CN(C)CCCOc1ccc2oc(=O)c(-c3ccc(OC4=CC(=O)c5cc6ccccc6cc5C4=O)cc3)cc2c1
[7]
  EC50: 26 nM
[8]
  Activity: 7.95 µM

## O=C(Cc1ccccc1Nc1c(Cl)cccc1Cl)NCCCNCCCNC1=CC(=O)C(NCCCNCCCNC(=O)Cc2ccccc2Nc2c(Cl)cccc2Cl)=CC1=O
[1]
  IC50: 600 nM
[9]
  IC50: 3110 nM

## CCN(CCCCCCNC1=CC(=O)C(NCCCCCCN(CC)Cc2ccccc2OC)=CC1=O)Cc1ccccc1OC [MEMOQUIN]
[1]
  IC50: 15400 nM

## Cc1ccc2c(c1)c1c(n2CCc2ccc(C)nc2)CCN(C)C1 [LATREPIRDINE]
[3]
  inhibition: inactive
[4]
  IC50: 13900 nM

## O=C1C=C(Oc2ccccc2)C(=O)c2ccccc21
[10]
  EC50: 80 nM
[11]
  selectivity ratio: 74
